Results published in article PMC10609114, “Melittin-Related Peptides Interfere with Sandfly Fever Naples Virus Infection by Interacting with Heparan Sulphate” (Microorganisms, 2023).
Peptide text beside a SMILES is read from it.

Legend:
SFNV [1] = experiment: Heparin assay: neutralization of SFNV infection by heparin; format: cell-based, sandfly fever Naples virus; conditions: Vero cells, heparin 266.7 to 0.26 μM with SFNV (200 TCID50/mL) 1 h at 37 °C, CPE after 5 days
Procedure: To analyze if heparin could neutralize the virus binding to cells, Vero were infected with SFNV (200 TCID50/mL) and simultaneously treated with serial heparin dilutions (1.56, […], 25, 100, 400, and 1600 μg/mL) for 1 h at 37 °C. Then, the cell monolayer was washed with medium and incubated in the presence of DMEM 5% FBS for 5 days until the CPE appeared. To analyze the simultaneous effect of heparin and each peptide against SFNV infection, a standard concentration of RV-23 or AR-23 (10 μM) was incubated together with the same above-mentioned heparin concentrations. At the same time, the virus (200 TCID50/mL) was added to cell monolayer and subsequently incubated for 1 h at 37 °C. The infection was observed after 5 days infection via CPE.
Phleboviruses use GAGs for the viral entry, including heparin and heparan sulphate (HS). […] Different concentrations of heparin were incubated with the virus during the adsorption phase, and after 5 days of infection, the CPE was analyzed (Figure 3A).
Figure 3 Heparin assay. […] Serial heparin concentrations were incubated with the virus and each peptide […] on Vero cells, and after 5 days of infection, CPE was analyzed by crystal violet staining. […]

SFNV [2] = experiment: Antiviral co-treatment assay (CPE, crystal violet); format: cell-based, sandfly fever Naples virus; conditions: Vero cells, peptide and SFNV (200 TCID50/mL) added together 1 h at 37 °C, CPE after 5 days; read-out: inhibitory concentration of 50% (IC50), co-treatment
Procedure: (§1) To analyze whether peptides were endowed with antiviral activity against SFNV, and, specifically, what stage of the infection was affected, different experimental procedures were carried out: (i) co-treatment assay: the cells (5 × 10^5/mL) were incubated with each peptide (at non-cytotoxic concentrations) and infected with the virus (200 TCID50/mL) at the same time (1 h at 37 °C); (ii) virus pre-treatment assay: […] and the mixture was subsequently titrated on cells; (iii) cell pre-treatment assay: cells were previously incubated with the peptide and then infected (1 h at 37 °C); (iv) post-treatment assay: peptide was incubated with the cells after the viral adsorption step (1 h at 37 °C). Following the incubation, the cell monolayer was rinsed three times with medium and than supplemented with DMEM 5% FBS. After 5 days post-infection, cythopathic effect (CPE) was observed and cells were stained with 0.5% crystal violet. All experiments were performed in triplicate. The inhibition rate of the infectivity was evaluated by CPE observed in the wells treated with the peptides to CPE in positive control (cells infected with virus, without peptide).
(§2) The difference between the assays was the timing of incubation of peptides on the cell monolayer. […]

SFNV [3] = experiment: Antiviral virus pre-treatment assay (CPE, crystal violet); format: cell-based, sandfly fever Naples virus; conditions: peptide incubated with SFNV 1 h at 37 °C, mixture titrated on Vero cells, CPE after 5 days; read-out: inhibitory concentration of 50% (IC50), virus pre-treatment
Procedure: as §1, §2

Vero cells = experiment: Cytotoxicity assay (MTT); format: cell-based; conditions: 24 h at 37 °C, peptide 50 to 3.125 μM, triplicate
Procedure: Confluent Vero cells were treated with twofold serial dilutions of each peptide (50, 25, 12.5, 6.25, 3.125 μM). The 96-well plates were incubated at 37 °C/5% CO2 for 24 h; then, cell viability was analyzed by the 3-(4,5-Dimethylthiazol-2-yl)-2,5-Diphenyltetrazolium Bromide (MTT, Sigma-Aldrich, St. Louis, MO, USA) assay based on the reduction of the yellowish MTT to dark blue formazan salts. In brief, at the end of incubation, 100 μL of MTT solution (5 mg/mL) was incubated in each well for 3 h at 37 °C. Supernatant was removed and 100 μL of DMSO 100% (Sigma Aldrich) was added to dissolve formazan. Cytotoxicity was evaluated by spectrophotometric reading at 540 nm. Cell viability was calculated as a percentage of control cells. All experiments were performed in triplicate and means and standard deviations were reported. Nonlinear regression analysis was performed using GraphPad Prism software (version 8.0.1) to extract the CC50.
A preliminary experiment was carried out to evaluate the maximal non-cytotoxic concentration of RV-23 and AR-23. Twofold serial dilutions of each peptide were incubated with Vero cells for 24 h at 37 °C.
Figure 1 Cytotoxicity analysis after RV-23 and AR-23 treatment. Vero cells were treated with each peptide in the range of concentrations from 50 to 3.125 μM. After 24 h, MTT assay was carried out. Cell viability was calculated as a percentage of control cells. […]

**Q.** Which “Inhibition of SFNV infection by heparin” value (SFNV [1]) does the source give for heparin here?
**A.** Its value is “strongly blocked the viral infection up to 4.2 μM”.

**Q.** Which IC50 (SFNV [2]) does the source give for `CC[C@H](C)[C@H](NC(=O)[C@H](C)N)C(=O)NCC(=O)N[C@@H](CO)C(=O)N[C@H](C(=O)N[C@@H](CC(C)C)C(=O)NCC(=O)N[C@@H](C)C(=O)N[C@@H](CC(C)C)C(=O)N[C@@H](C)C(=O)N[C@@H](CCCCN)C(=O)NCC(=O)N[C@@H](CC(C)C)C(=O)N1CCC[C@H]1C(=O)N[C@H](C(=O)N[C@@H](CC(C)C)C(=O)N[C@H](C(=O)N[C@@H](CO)C(=O)N[C@@H](Cc1c[nH]c2ccccc12)C(=O)N[C@H](C(=O)N[C@@H](CCCCN)C(=O)N[C@@H](CC(N)=O)C(=O)N[C@@H](CCCNC(=N)N)C(N)=O)[C@@H](C)CC)[C@@H](C)CC)[C@@H](C)O)[C@@H](C)CC` [AR-23] (H-AIGSILGALAKGLPTLISWIKNR-NH2) here?
**A.** The IC50 was 12.5 µM.

**Q.** And the IC50 (SFNV [3])?
**A.** Its IC50 is 10 µM.

**Q.** And the “Cytotoxicity (cell viability) in words” value (Vero cells)?
**A.** The value was “consistently affected cell viability at 50 μM”.

**Q.** Which results are given for `CC[C@H](C)[C@H](NC(=O)[C@@H](N)CCCNC(=N)N)C(=O)NCC(=O)N[C@H](C(=O)N[C@@H](CC(C)C)C(=O)N[C@@H](CC(C)C)C(=O)N[C@@H](C)C(=O)N[C@@H](CCCNC(=N)N)C(=O)N[C@@H](CC(C)C)C(=O)N1CCC[C@H]1C(=O)N[C@@H](CCCCN)C(=O)N[C@@H](CC(C)C)C(=O)N[C@@H](Cc1ccccc1)C(=O)N[C@@H](CO)C(=O)N[C@@H](CC(C)C)C(=O)N[C@@H](Cc1ccccc1)C(=O)N[C@@H](CCCCN)C(=O)N[C@@H](CC(C)C)C(=O)N[C@@H](CCSC)C(=O)NCC(=O)N[C@@H](CCCCN)C(=O)N[C@@H](CCCCN)C(=O)N[C@H](C(N)=O)C(C)C)C(C)C` [RV-23] (H-RIGVLLARLPKLFSLFKLMGKKV-NH2)?
**A.** IC50 (SFNV [2]): 10 µM; IC50 (SFNV [3]): 6.25 µM; Cytotoxicity (cell viability) in words (Vero cells): not cytotoxic up to the highest dose
